Test results from US20110098288A1, “SULFONAMIDES AS ZAP-70 INHIBITORS” (priority 2008, published 2011).
Structures can show the parent of a compound that is named as a salt.

Each molecule was assayed against T1, ZAP-70 (Homo sapiens, UniProt P43403) (assay: ZAP-70 kinobeads assay). Conditions: competition with immobilized aminopyrido-pyrimidine ligand 24 in cell lysate; ZAP-70 detected by dot blot.
T1 construct: endogenous in cells; host or cells: cell lysate
T1 sequence (P43403 1-619): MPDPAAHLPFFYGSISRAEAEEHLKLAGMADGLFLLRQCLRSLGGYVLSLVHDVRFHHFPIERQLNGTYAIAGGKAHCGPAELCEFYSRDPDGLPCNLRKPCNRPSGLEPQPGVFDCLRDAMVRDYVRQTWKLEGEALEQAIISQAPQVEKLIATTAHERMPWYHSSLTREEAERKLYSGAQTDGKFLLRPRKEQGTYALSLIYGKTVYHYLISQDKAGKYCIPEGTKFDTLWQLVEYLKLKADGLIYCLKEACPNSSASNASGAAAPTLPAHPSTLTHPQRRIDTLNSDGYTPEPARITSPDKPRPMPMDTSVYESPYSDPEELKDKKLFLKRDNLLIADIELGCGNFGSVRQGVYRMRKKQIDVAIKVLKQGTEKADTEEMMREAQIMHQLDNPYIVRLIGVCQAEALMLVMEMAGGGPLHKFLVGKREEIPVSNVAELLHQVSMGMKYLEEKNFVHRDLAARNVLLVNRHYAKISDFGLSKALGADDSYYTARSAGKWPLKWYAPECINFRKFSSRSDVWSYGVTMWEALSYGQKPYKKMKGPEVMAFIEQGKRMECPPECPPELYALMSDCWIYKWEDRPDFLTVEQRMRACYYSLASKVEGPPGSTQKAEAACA
Format: binding
Procedure: The compounds of the present invention as described in the previous examples can be tested in the ZAP-70 kinobeads assay as described (EP-A 1862802 and WO-A 2007/137867). Briefly, test compounds (at various concentrations) and the affinity matrix with the immobilized aminopyrido-pyrimidine ligand 24 are added to cell lysate aliquots and allowed to bind to the proteins in the lysate sample. After the incubation time the beads with captured proteins are separated from the lysate. Bound proteins are then eluted and the presence ZAP-70 is detected and quantified using a specific antibody in a dot blot procedure and the Odyssey infrared detection system. Conventionally, ZAP-70 kinase activity can be measured using purified or recombinant enzyme in a solution-based assay with protein or peptide substrates (Isakov et al., 1996, J. Biol. Chem. 271(26), 15753-15761; Moffat et al., 1999, Bioorg. Med. Chem. Letters 9, 3351-3356).
Molecule `CS(=O)(=O)Nc1ccccc1Nc1nc(Nc2ccc(-n3cncn3)cc2)ncc1Cl` [Example 212, N-(2-(2-(4-(1H-1,2,4-triazol-1-yl)phenylamino)-5-chloropyrimidin-4-ylamino)phenyl)methanesulfonamide] has an IC50 of 0.1 to 1 µM.
`CS(=O)(=O)Nc1ccccc1Nc1nc(Nc2ccc(CC(=O)O)cc2)ncc1Cl` [Example 148, 2-(4-(5-chloro-4-(2-(methylsulfonamido)phenylamino)pyrimidin-2-ylamino)phenyl)acetic acid] was tested, and the IC50 was < 0.1 µM.
With `COc1ccc(Nc2nc(Nc3ccc(OC)c(OC)c3)ncc2Cl)c(NS(C)(=O)=O)c1` [Example 153, N-(2-(5-chloro-2-(3,4-dimethoxyphenylamino)pyrimidin-4-ylamino)-5-methoxyphenyl)methanesulfonamide] the IC50 was < 0.1 µM.
With `COc1ccc(Nc2ncc(F)c(Nc3ccccc3NS(C)(=O)=O)n2)cc1Cl` [Example 19, N-(2-(2-(3-chloro-4-methoxyphenylamino)-5-fluoropyrimidin-4-ylamino)phenyl)methanesulfonamide] the IC50 was 1 to 10 µM.
`CS(=O)(=O)Nc1ccccc1Nc1nc(Nc2ccc3c(c2)OCC(=O)N3)ncc1F` [Example 23, N-(2-(5-fluoro-2-(3-oxo-3,4-dihydro-2H-benzo[b][1,4]oxazin-7-ylamino)pyrimidin-4-ylamino)phenyl)methanesulfonamide] was tested, and the IC50 was 0.1 to 1 µM.
With `CS(=O)(=O)Nc1ccccc1Nc1nc(Nc2ccc3nn[nH]c3c2)ncc1F` [Example 33, N-(2-(2-(1H-benzo[d][1,2,3]-triazol-6-ylamino)-5-fluoropyrimidin-4-ylamino)phenyl)methanesulfonamide] the IC50 was 0.1 to 1 µM.
With `COc1cc(Nc2ncc(F)c(Nc3ccccc3NS(C)(=O)=O)n2)cc(OC)c1OCCN1CCCC1` [Example 75, N-(2-(2-(3,5-dimethoxy-4-(2-(pyrrolidin-1-yl)ethoxy)phenylamino)-5-fluoropyrimidin-4-ylamino)phenyl)methanesulfonamide] the IC50 was < 0.1 µM.
With `Cc1nc(-c2cccc(Nc3ncc(F)c(Nc4ccccc4NS(C)(=O)=O)n3)c2)no1` [Example 189, N-(2-(5-fluoro-2-(3-(5-methyl-1,2,4-oxadiazol-3-yl)phenylamino)pyrimidin-4-ylamino)phenyl)methanesulfonamide] the IC50 was 1 to 10 µM.
Molecule `CCCOc1cccc(Nc2ncc(F)c(Nc3cccc(C)c3NS(C)(=O)=O)n2)c1` [Example 122, N-(2-(5-fluoro-2-(3-propoxyphenylamino)pyrimidin-4-ylamino)-6-methylphenyl)methanesulfonamide] has an IC50 of 1 to 10 µM.
In the case of `COc1ccc(Nc2nc(Nc3cc(OC)c(OC)c(OC)c3)ncc2F)c(NS(C)(=O)=O)c1C` [Example 163, N-(6-(5-fluoro-2-(3,4,5-trimethoxyphenylamino)pyrimidin-4-ylamino)-3-methoxy-2-methylphenyl)methanesulfonamide], the IC50 is reported as 0.1 to 1 µM.
`CS(=O)(=O)Nc1ccccc1Nc1nc(Nc2cccc(F)c2)ncc1F` [Example 6, N-(2-(5-fluoro-2-(3-fluorophenylamino)pyrimidin-4-ylamino)phenyl)methanesulfonamide] gave an IC50 of 1 to 10 µM.
Molecule `CN1C(=O)COc2ccc(Nc3ncc(F)c(Nc4ccccc4NS(C)(=O)=O)n3)cc21` [Example 20, N-(2-(5-fluoro-2-(4-methyl-3-oxo-3,4-dihydro-2H-benzo[b][1,4]oxazin-6-ylamino)pyrimidin-4-ylamino)phenyl)methanesulfonamide] has an IC50 of 1 to 10 µM.
With `Cc1cc(C)n(-c2ccc(Nc3ncc(Cl)c(Nc4ccccc4NS(C)(=O)=O)n3)cc2)n1` [Example 210, N-(2-(5-chloro-2-(4-(3,5-dimethyl-1H-pyrazol-1-yl)phenylamino)pyrimidin-4-ylamino)phenyl)methanesulfonamide] the IC50 was 0.1 to 1 µM.
Work on `COCCOc1cccc(Nc2ncc(F)c(Nc3cccc(C)c3NS(C)(=O)=O)n2)c1` [Example 115, N-(2-(5-fluoro-2-(3-(2-methoxyethoxy)phenylamino)pyrimidin-4-ylamino)-6-methylphenyl)methanesulfonamide] yielded an IC50 of 0.1 to 1 µM.
`CS(=O)(=O)Nc1ccccc1Nc1nc(Nc2cccc(-c3cnco3)c2)ncc1F` [Example 193, N-(2-(5-fluoro-2-(3-(oxazol-5-yl)phenylamino)pyrimidin-4-ylamino)phenyl)methanesulfonamide] gave an IC50 of 0.1 to 1 µM.
`CS(=O)(=O)Nc1ccccc1Nc1nc(Nc2cccc(-n3cnnn3)c2)ncc1Br` [Example 216, N-(2-(2-(3-(1H-tetrazol-1-yl)phenylamino)-5-bromopyrimidin-4-ylamino)phenyl)methanesulfonamide] gave an IC50 of 0.1 to 1 µM.
`COc1cc(Nc2ncc(F)c(Nc3ccccc3NS(=O)(=O)CCN(C)C)n2)cc(OC)c1OC` [Example 61, 2-(Dimethylamino)-N-(2-(5-fluoro-2-(3,4,5-trimethoxyphenylamino)pyrimidin-4-ylamino)phenyl)ethanesulfonamide] showed an IC50 of 1 to 10 µM.
Work on `CNC(=O)c1cccc(Nc2ncc(F)c(Nc3ccccc3NS(C)(=O)=O)n2)c1` [Example 80, 3-(5-fluoro-4-(2-(methylsulfonamido)phenylamino)pyrimidin-2-ylamino)-N-methylbenzamide] yielded an IC50 of 1 to 10 µM.
`CS(=O)(=O)Nc1ccccc1Nc1nc(Nc2cccc(-n3cccn3)c2)ncc1Cl` [Example 206, N-(2-(2-(3-(1H-pyrazol-1-yl)phenylamino)-5-chloropyrimidin-4-ylamino)phenyl)methanesulfonamide] was tested, and the IC50 was 0.1 to 1 µM.
Work on `CN(C)C(=O)c1cccc(Nc2ncc(F)c(Nc3ccccc3NS(C)(=O)=O)n2)c1` [Example 84, 3-(5-fluoro-4-(2-(methylsulfonamido)phenylamino)pyrimidin-2-ylamino)-N,N-dimethylbenzamide] yielded an IC50 of 0.1 to 1 µM.
`COc1cc(Nc2ncc(F)c(Nc3cccc(C)c3N(C)S(C)(=O)=O)n2)cc(OC)c1OC` [Example 181, N-(2-(5-fluoro-2-(3,4,5-trimethoxyphenylamino)pyrimidin-4-ylamino)-6-methylphenyl)-N-methylmethanesulfonamide] gave an IC50 of 0.1 to 1 µM.
With `COc1cc(Nc2ncc(F)c(Nc3cc(F)c(F)cc3NS(C)(=O)=O)n2)cc(OC)c1OC` [Example 174, N-(4,5-difluoro-2-(5-fluoro-2-(3,4,5-trimethoxyphenylamino)pyrimidin-4-ylamino)phenyl)methanesulfonamide] the IC50 was 1 to 10 µM.
In the case of `CS(=O)(=O)Nc1ccccc1Nc1nc(Nc2ccc(C#N)cc2)ncc1Cl` [Example 204, N-(2-(5-chloro-2-(4-cyanophenylamino)pyrimidin-4-ylamino)phenyl)methanesulfonamide], the IC50 is reported as 1 to 10 µM.
`COc1cc(Nc2ncc(F)c(Nc3ccccc3NS(=O)(=O)c3ccccc3)n2)cc(OC)c1OC` [Example 47, N-(2-(5-fluoro-2-(3,4,5-trimethoxyphenylamino)pyrimidin-4-ylamino)phenyl)benzenesulfonamide] gave an IC50 of 1 to 10 µM.
`CS(=O)(=O)Nc1ccccc1Nc1nc(Nc2ccc(-n3cccn3)cc2)ncc1Cl` [Example 207, N-(2-(2-(4-(1H-pyrazol-1-yl)phenylamino)-5-chloropyrimidin-4-ylamino)phenyl)methanesulfonamide] was tested, and the IC50 was 0.1 to 1 µM.
Molecule `CCN(CC)C(=O)COc1cccc(Nc2ncc(F)c(Nc3ccccc3NS(C)(=O)=O)n2)c1` [Example 100, N,N-diethyl-2-(3-(5-fluoro-4-(2-(methylsulfonamido)phenylamino)pyrimidin-2-ylamino)phenoxy)acetamide 2,2,2-trifluoroacetate] has an IC50 of 0.1 to 1 µM.
`COc1ccc(Nc2ncc(F)c(Nc3ccccc3N(C)S(C)(=O)=O)n2)cc1OC` [Example 109, N-(2-(2-(3,4-dimethoxyphenylamino)-5-fluoropyrimidin-4-ylamino)phenyl)-N-methylmethanesulfonamide] gave an IC50 of 0.1 to 1 µM.
In the case of `CS(=O)(=O)Nc1ccccc1Nc1nc(Nc2ccc(-n3cnnn3)cc2)ncc1Cl` [Example 214, N-(2-(2-(4-(1H-tetrazol-1-yl)phenylamino)-5-chloropyrimidin-4-ylamino)phenyl)methanesulfonamide], the IC50 is reported as 0.1 to 1 µM.
`CS(=O)(=O)Nc1ccccc1Nc1nc(Nc2cccc(OCC(=O)O)c2)ncc1F` [Example 99, 2-(3-(5-fluoro-4-(2-(methylsulfonamido)phenylamino)pyrimidin-2-ylamino)phenoxy)acetic acid hydrochloride] showed an IC50 of 0.1 to 1 µM.
`COc1cc(Nc2ncc(F)c(Nc3ccccc3NS(C)(=O)=O)n2)ccc1C` [Example 73, N-(2-(5-fluoro-2-(3-methoxy-4-methylphenylamino)pyrimidin-4-ylamino)phenyl)methanesulfonamide] gave an IC50 of 0.1 to 1 µM.
`COc1ccc(Nc2nc(Nc3ccc(OC)c(OC)c3)ncc2F)c(NS(C)(=O)=O)c1` [Example 180, N-(2-(2-(3,4-dimethoxyphenylamino)-5-fluoropyrimidin-4-ylamino)-5-methoxyphenyl)methanesulfonamide] was tested, and the IC50 was < 0.1 µM.
